Measured values taken from paper PMC7083851, “Extended pharmacodynamic responses observed upon PROTAC-mediated degradation of RIPK2” (Communications Biology, 2020).
“And” between values parts separate entries of the source, which are not always exact repeats. Equal values may be shown once. Read-outs that look alike come from different tables or passages of the source.

Legend:
Rat intravenous PK = format: in vivo
Protocol: Rats (n = 3) received a single intravenous (IV) bolus administration (1 mg/kg, 4 mL/kg, n = 3 rats) formulated as a solution in saline with the pH adjusted to 4.0.
Aliquots of diluted whole blood (50:50) were analysed using quantitative high-performance liquid chromatography with tandem mass spectrometric detection (LC/MS/MS) following protein precipitation. […] PK parameters were generated following non-compartmental analysis (Phoenix® WinNonlin® (Certara, L.P., St. Louis, MO)) of the resulting concentration-time data.

[1] = High-throughput precipitation solubility, chemiluminescent nitrogen-specific detection (CLND); format: physicochemical; settings: high-throughput
[2] = Blood concentrations after subcutaneous dosing in rat PK/PD studies; format: in vivo
Protocol: Female CD rats (7–8 weeks old on arrival, Charles River Ltd.) were placed into groups using a randomization schedule based on body weight prior to the study start. All animals were acclimatized for a minimum of one week prior to the experiment commencing. […] PROTAC 4 was dissolved in saline with the pH adjusted to 5.0 with sodium hydroxide (1 M).

XIAP = target: T1, XIAP (Homo sapiens, UniProt P98170); assay: XIAP levels in human PBMCs, 24 h, capillary immunoassay; format: cell-based; settings: up to 1uM
T1 construct: endogenous in cells; host or cells: primary human PBMCs
Protocol: (§1) Where the assessment of cytokines was performed, L18-MDP was added to the cell culture media (1 μg/ml) or to the rat blood samples (100 ng/ml) and samples were incubated for up to 4 h. For human blood, 250 ng/ml MDP (Invivogen) was added following compound treatment and the samples were further incubated for 5 h. Samples were them spun down at 1000 g and the cell culture supernatant, plasma or serum were collected for cytokines assessment, while cell pellets were used for RIPK2 and/or cIAP1, cIAP2, and XIAP levels analysis via immunoblotting.
Simple Western immunoassay: Cell lysates were mixed with 5× concentrated master mix (Protein Simple) and denatured at 95 °C on a heat block for 5 min together with the provided ladder (Protein Simple). Antibodies were diluted in the provided buffer as following: anti-RIPK2 (1:10 or 1:50), anti-cIAP1(1:10), anti-cIAP2 (1:10), anti-XIAP (1:10), mouse anti-β-actin (Abcam - 1:1000), rabbit anti-β-actin (Abcam - 1:50) and anti-vinculin (1:100). […] All samples were analyzed using the associated Compass software 3.1.7. […]
Cell viability was assessed by using Cell Titer
Kit (Promega) according to the manufacturer’s instructions. Samples were analysed using […]

cIAP1 = target: T2, cIAP1 (Homo sapiens, UniProt Q13490); format: cell-based; settings: human PBMCs, 24 h, 1uM
T2 construct: endogenous in cells; host or cells: primary human PBMCs
Protocol: as §1, with “For human blood, 250 ng/ml MDP (Invivogen) was added following compound treatment and the samples were further incubated for 5 h.” left out
Simple Western immunoassay: Cell lysates were mixed with 5× concentrated master mix (Protein Simple) and denatured at 95 °C on a heat block for 5 min together with the provided ladder (Protein Simple). Antibodies were diluted in the provided buffer as following: anti-RIPK2 (1:10 or 1:50), anti-cIAP1(1:10), anti-cIAP2 (1:10), anti-XIAP (1:10), mouse anti-β-actin (Abcam - 1:1000), rabbit anti-β-actin (Abcam - 1:50) and anti-vinculin (1:100). All reagents (blocking buffer, primary and secondary antibodies, streptavadin, luminol/peroxide, separation matrix, stacking matrix and water) were added to the Protein Simple plate containing the ladder and lysates and the plate was placed in a Protein Simple Western instrument and the Simple Western default size assay protocol was used. […] The area under the peak values obtained for RIPK2, cIAP1, cIAP2 or XIAP were normalized relative to the control protein values.

T1 sequence (P98170 whole entry): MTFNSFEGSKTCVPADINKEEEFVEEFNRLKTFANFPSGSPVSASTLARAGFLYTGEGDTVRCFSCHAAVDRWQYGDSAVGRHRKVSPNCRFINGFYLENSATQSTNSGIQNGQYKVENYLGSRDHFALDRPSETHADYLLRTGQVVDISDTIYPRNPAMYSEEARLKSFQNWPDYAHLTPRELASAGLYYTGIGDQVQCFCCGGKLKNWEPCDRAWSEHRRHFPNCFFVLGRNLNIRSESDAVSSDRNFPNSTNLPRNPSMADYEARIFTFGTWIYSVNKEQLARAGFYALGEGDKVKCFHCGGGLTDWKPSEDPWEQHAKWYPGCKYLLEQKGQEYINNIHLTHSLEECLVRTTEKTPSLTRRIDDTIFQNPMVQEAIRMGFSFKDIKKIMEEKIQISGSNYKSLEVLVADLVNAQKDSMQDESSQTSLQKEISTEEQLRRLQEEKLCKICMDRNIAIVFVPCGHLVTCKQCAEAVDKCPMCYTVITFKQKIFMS
T2 sequence (Q13490 whole entry): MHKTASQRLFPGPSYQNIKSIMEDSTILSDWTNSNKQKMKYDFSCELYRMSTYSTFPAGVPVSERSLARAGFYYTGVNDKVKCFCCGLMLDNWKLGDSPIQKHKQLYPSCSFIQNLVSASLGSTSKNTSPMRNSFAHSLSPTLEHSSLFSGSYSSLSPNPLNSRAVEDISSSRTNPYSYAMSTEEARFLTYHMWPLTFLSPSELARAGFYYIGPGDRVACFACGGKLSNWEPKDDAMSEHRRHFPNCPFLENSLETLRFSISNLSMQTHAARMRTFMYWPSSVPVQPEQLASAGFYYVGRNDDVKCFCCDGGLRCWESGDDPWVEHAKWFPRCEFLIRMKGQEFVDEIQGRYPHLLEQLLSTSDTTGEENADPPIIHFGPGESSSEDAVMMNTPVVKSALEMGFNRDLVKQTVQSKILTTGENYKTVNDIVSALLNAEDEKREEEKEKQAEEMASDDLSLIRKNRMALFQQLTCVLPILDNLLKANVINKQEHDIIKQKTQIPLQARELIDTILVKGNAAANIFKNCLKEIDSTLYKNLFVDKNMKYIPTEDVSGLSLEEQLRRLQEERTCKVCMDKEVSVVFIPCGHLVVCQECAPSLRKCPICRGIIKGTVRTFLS

SMILES: CN[C@@H](C)C(=O)N[C@H](C(=O)N1CCC[C@H]1c1nc(C(=O)c2ccc(F)cc2)cs1)C1CCN(C(=O)c2cnc(N3CCN(CCOc4cc5ncnc(Nc6n[nH]c(C)c6C)c5cc4S(=O)(=O)C(C)(C)C)CC3)nc2)CC1 [PROTAC 4]
- mean intravenous clearance in rats, in words (Rat intravenous PK; in vivo, iv): less than a quarter of liver blood flow
- clearance (Rat intravenous PK; male, Sprague Dawley (PROTAC 4), Han Wistar (PROTAC 6), whole blood, IV bolus (4: 2 mg/kg; 6: 1 mg/kg)): 18 mL/min/kg
- half-life (Rat intravenous PK; male, Sprague Dawley (PROTAC 4), Han Wistar (PROTAC 6), whole blood, IV bolus (4: 2 mg/kg; 6: 1 mg/kg), read-out: Rat T½ (converted)): 6.9 h
- Vd (Rat intravenous PK; male, Sprague Dawley (PROTAC 4), Han Wistar (PROTAC 6), whole blood, IV bolus (4: 2 mg/kg; 6: 1 mg/kg), read-out: Rat Vdss): 11 L/kg
- solubility [1]: > 311 µM
- blood concentration, individual rat ([2]; 5 mg/kg SC, 14-day study, 0.25 h): 79.2 ng/mL and 80.8 ng/mL and 137 ng/mL
- PK, blood concentration, individual rat ([2]; 20 mg/kg SC single dose, 7-day study, 0.25 h): 142.1 ng/mL and 262.3 ng/mL and 219.2 ng/mL and 88.3 ng/mL and 114.7 ng/mL
- PK, blood concentration, individual rat ([2]; 20 mg/kg SC single dose, 7-day study, 0.5 h): 113.3 ng/mL and 220.7 ng/mL and 177.2 ng/mL and 88.4 ng/mL and 248.8 ng/mL
- PK, blood concentration, individual rat ([2]; 20 mg/kg SC single dose, 7-day study, 1 h): 131.0 ng/mL and 198.9 ng/mL and 114.6 ng/mL and 195.5 ng/mL
- PK, blood concentration, individual rat ([2]; 20 mg/kg SC single dose, 7-day study, 2 h): 110.9 ng/mL and 278.2 ng/mL and 204.9 ng/mL and 96.5 ng/mL and 292.6 ng/mL
- PK, blood concentration, individual rat ([2]; 20 mg/kg SC single dose, 7-day study, 4 h): 211.6 ng/mL and 307.5 ng/mL and 375.8 ng/mL and 186.8 ng/mL and 240.9 ng/mL
- PK, blood concentration, individual rat ([2]; 20 mg/kg SC single dose, 7-day study, 8 h): 104.7 ng/mL and 227.5 ng/mL and 262.0 ng/mL and 193.4 ng/mL and 268.5 ng/mL
- PK, blood concentration, individual rat ([2]; 20 mg/kg SC single dose, 7-day study, 24 h): 240.6 ng/mL and 261.7 ng/mL and 347.0 ng/mL and 497.6 ng/mL and 315.9 ng/mL and 347 ng/mL
- PK, blood concentration, individual rat ([2]; 20 mg/kg SC single dose, 7-day study, 72 h): 253.7 ng/mL and 143.8 ng/mL and 111.7 ng/mL and 90.2 ng/mL and 121.5 ng/mL and 90.15 ng/mL
- PK, blood concentration, individual rat ([2]; 20 mg/kg SC single dose, 7-day study, 168 h): 15.0 ng/mL and 7.4 ng/mL and 9.6 ng/mL and 9.4 ng/mL and 6.1 ng/mL and 15.02 ng/mL and 7.438 ng/mL and 9.644 ng/mL and 9.399 ng/mL and 6.103 ng/mL
- blood concentration, individual rat ([2]; 20 mg/kg SC, 14-day study, 0.25 h): 103 ng/mL and 111 ng/mL and 92.3 ng/mL and 10.6 ng/mL and 39.4 ng/mL
- blood concentration, individual rat ([2]; 20 mg/kg SC, 14-day study, 0.5 h): 115 ng/mL and 140 ng/mL and 82.5 ng/mL and 99.9 ng/mL
- blood concentration, individual rat ([2]; 20 mg/kg SC, 14-day study, 1 h): 173 ng/mL and 63.3 ng/mL and 90.1 ng/mL and 113 ng/mL and 45.9 ng/mL
- blood concentration, individual rat ([2]; 20 mg/kg SC, 14-day study, 2 h): 141 ng/mL and 113 ng/mL and 120 ng/mL and 223 ng/mL
- blood concentration, individual rat ([2]; 20 mg/kg SC, 14-day study, 4 h): 226 ng/mL and 313 ng/mL and 572 ng/mL and 294 ng/mL and 206 ng/mL
- blood concentration, individual rat ([2]; 20 mg/kg SC, 14-day study, 8 h): 159 ng/mL and 180 ng/mL and 329 ng/mL and 167 ng/mL and 200 ng/mL
- blood concentration, individual rat ([2]; 20 mg/kg SC, 14-day study, 24 h): 698 ng/mL and 518 ng/mL and 213 ng/mL and 503 ng/mL and 150 ng/mL
- blood concentration, individual rat ([2]; 20 mg/kg SC, 14-day study, 72 h): 14.1 ng/mL and 69.4 ng/mL and 30 ng/mL and 33.4 ng/mL and 57.6 ng/mL
- blood concentration, individual rat ([2]; 20 mg/kg SC, 14-day study, 168 h): 3.47 ng/mL and 10.5 ng/mL and 2.32 ng/mL and 3.82 ng/mL and 4.88 ng/mL
- blood concentration, individual rat ([2]; 20 mg/kg SC, 14-day study, 240 h): 1.11 ng/mL and 2.09 ng/mL and 1.34 ng/mL
- concentration at 7 days ([2]; rat, blood, sc, 20 mg/kg, rat, single 20 mg/kg SC, after 7 days, read-out: compound levels in blood at later time-points): < 10 ng/mL
- concentration at 1 h ([2]; rat, blood, subcutaneous, 20 mg/kg, 20 mg/kg SC single dose, 7-day study, 1 h, read-out: PK, blood concentration, individual rat): 132 ng/mL
- concentration at 0.5 h ([2]; rat, blood, subcutaneous, 20 mg/kg, 20 mg/kg SC, 14-day study, 0.5 h, read-out: blood concentration, individual rat): 126 ng/mL
- concentration at 2 h ([2]; rat, blood, subcutaneous, 20 mg/kg, 20 mg/kg SC, 14-day study, 2 h, read-out: blood concentration, individual rat): 124 ng/mL
- concentration at 240 h ([2]; rat, blood, subcutaneous, 20 mg/kg, 20 mg/kg SC, 14-day study, 240 h, read-out: blood concentration, individual rat): 1.68 ng/mL
- concentration at […] ([2]; rat, blood, subcutaneous, 20 mg/kg, 20 mg/kg SC, 14-day study, […], read-out: blood concentration, individual rat): 1.71 ng/mL
- concentration at 24 h ([2]; rat, whole blood, subcutaneous, 1 mg/kg, 1 mg/kg SC, 14-day study, 24 h, read-out: blood concentration, individual rat): 7.14 ng/mL
- concentration at 72 h ([2]; rat, whole blood, subcutaneous, 1 mg/kg, 1 mg/kg SC, 14-day study, 72 h, read-out: blood concentration, individual rat): 1.67 ng/mL
- concentration at 24 h ([2]; rat, whole blood, subcutaneous, 5 mg/kg, 5 mg/kg SC, 14-day study, 24 h, read-out: blood concentration, individual rat): 29.2 ng/mL
- concentration at 168 h ([2]; rat, whole blood, subcutaneous, 5 mg/kg, 5 mg/kg SC, 14-day study, 168 h, read-out: blood concentration, individual rat): 4.77 ng/mL
- concentration at 240 h ([2]; rat, whole blood, subcutaneous, 5 mg/kg, 5 mg/kg SC, 14-day study, 240 h, read-out: blood concentration, individual rat): 1.13 ng/mL

SMILES: CN[C@@H](C)C(=O)N[C@H](C(=O)N1C[C@@H](NC(=O)c2cnc(N3CCN(CCCOc4cc5ncnc(Nc6n[nH]c(C)c6C)c5cc4S(=O)(=O)C(C)(C)C)CC3)cn2)C[C@H]1C(=O)Nc1c(F)cccc1F)C(C)(C)C [PROTAC 6]
- change in XIAP protein levels, in words (XIAP): no change in protein levels
- reduction in cIAP1 levels (cIAP1): ~ 25%
- time drug levels were maintained above the LLQ after the first dose ([2]; rat, […] Q3D SC): 24 h
